Common to all, as to assay type: cell-based
One assay addresses T1, EGFR WT (Ba/F3 cells) (Homo sapiens, UniProt P00533).
T1 construct: expressed in transfected cells; host or cells: Ba/F3 (murine pro-B cells), retroviral transduction, puromycin selection, maintained with EGF
As to the kind of experiment: Inhibitor activity on EGFR-dependent cell growth (CellTiter-Glo, 72 h), Ba/F3 EGFR WT. The conditions noted are these: read-out: BaF3 WT IC50. A digest of the protocol: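 This growth assay used Ba/F3 cells that depend on wild-type EGFR and are kept in EGF without IL3. Compounds were made up as 10 mM DMSO stocks and diluted 3-fold over 10 points. 120 nL went onto 600 cells/well. After 72 hours, 40 μL CellTiter-Glo was added and luminescence read on EnVision after 30 min.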
For orientation: In ATP-based viability assays light output follows the ATP content of the culture.

Assay [1] concerns the target EGFR exon 19del (Ba/F3 cells) (Homo sapiens, UniProt P00533). As to the kind of experiment: Inhibitor activity on EGFR-dependent cell growth (CellTiter-Glo, 72 h), Ba/F3 EGFR exon 19del. The conditions noted are these: Ba/F3 EGFR exon 19del cell growth, read-out: BaF3 Del19 IC50. From the text: (§1) Example A. Inhibitor Activity on EGFR-Dependent Cell Growth
(§2) Cell lines are generated by transducing Ba/F3 cells with retroviruses containing vectors with EGFR WT, EGFR L858R, EGFR exon 19del, EGFR L858R/C797S, EGFR exon 20 NPG Ins D770_N771, EGFR exon 20 ASV Ins V769_D770, EGFR exon 20 SVD Ins D770_N771, or EGFR exon 20 FQEA Ins A763_V764 genes and a puromycin selection marker. Transduced cells are selected with puromycin for 7 days and are then be transferred into culture media without Interleukin 3 (IL3). EGFR WT cells are maintained with supplemental EGF. Surviving cells are confirmed to express EGFR by Western blot and maintained as a pool. The IC50 date were included in Table 6 and Table 7.
(§3) 1.1 Cells are harvested from flask into cell culture medium and the cell number counted.
(§4) 1.2 Cells are diluted with culture medium to the desired density and 40 μL of cell suspension is added into each well of 384-well cell culture plate and the seeding density is 800 (FQEA, exon 19del), 600 (WT, NPG, L858R/C797S), or 400 (ASV, SVD, L858R) cells/well.
(§5) 2 Compound Preparation and Treatment
(§6) 2.1 Test compounds are dissolved to 10 mM in a DMSO stock solution. 45 μL of stock solution is transferred to a 384 polypropylene plate (pp-plate). Perform 3-fold, 10-point dilution via transferring 15 μL compound into 30 μL DMSO using a TECAN (EVO200) liquid handler.
(§7) 2.2 Spin plates at room temperature at 1,000 RPM for 1 minute.
(§8) 2.3 Transfer 120 nL of diluted compound from compound source plate into the cell plate.
(§9) 2.4 After compound treatment for 72 hours, perform CTG detection for compound treatment plates as described in “Detection” section.
(§10) 3.1 Plates are removed from incubators and equilibrated at room temperature for 15 minutes.
(§11) 3.2 Thaw the CellTiter Glo reagents and allow to equilibrate to room temperature before the experiment.
(§12) 3.3 Add 40 μL of CellTiter-Glo reagent into each well (at 1:1 to culture medium). Then place the plates at room temperature for 30 min followed by reading on EnVision.
(§13) 4.1 Inhibition activity is calculated following the formula below:
(§14) % Inhibition=100×(LumHC−LumSample)/(LumHC−LumLC) • where HC is obtained from cells treated with 0.1% DMSO only; and LC is obtained from culture medium only.
(§15) 4.2 2. Calculate the IC50 by fitting the Curve using Xlfit (v5.3.1.3), equation 201.
(§16) Y=Bottom+(Top−Bottom)/(1+10^((Log IC50−X)*HillSlope))

Assay [2] addresses T2, EGFR exon 20 ASV Ins V769_D770 (Ba/F3 cells) (Homo sapiens, UniProt P00533, INS769ASV).
T2 construct: expressed in transfected cells; host or cells: Ba/F3 (murine pro-B cells), retroviral transduction, puromycin selection, IL3-independent pool
Kind of assay: Inhibitor activity on EGFR-dependent cell growth (CellTiter-Glo, 72 h), Ba/F3 EGFR exon 20 ASV Ins. The conditions noted are these: read-out: BaF3 ASV IC50. The method, boiled down:
(§17)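 IC50s derive from a sigmoidal dose–response fit of CellTiter-Glo signal. The signal was normalised between […]-treated cells and cell-free medium. Ba/F3 mutant-EGFR cells, seeded at 400–800/well depending on the line, had 72 h of exposure to a 10-point, 3-fold compound series.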

The next assay addresses T3, EGFR L858R (Ba/F3 cells) (Homo sapiens, UniProt P00533, L858R).
T3 construct: expressed in transfected cells; host or cells: Ba/F3 (murine pro-B cells), retroviral transduction, puromycin selection, IL3-independent pool
As to the kind of experiment: Inhibitor activity on EGFR-dependent cell growth (CellTiter-Glo, 72 h), Ba/F3 EGFR L858R. The conditions noted are these: read-out: BaF3 L858R IC50.
Description: as §1, §2, §3, §4, §5, §6, §7, §8, §9, §10, §11, §12, §13, §14, §15, §16

The target of assay [3] is T4, EGFR exon 20 FQEA Ins A763_V764 (Ba/F3 cells) (Homo sapiens, UniProt P00533, INS763FQEA).
T4 construct: expressed in transfected cells; host or cells: Ba/F3 (murine pro-B cells), retroviral transduction, puromycin selection, IL3-independent pool
Kind of assay: Inhibitor activity on EGFR-dependent cell growth (CellTiter-Glo, 72 h), Ba/F3 EGFR exon 20 FQEA Ins. The conditions noted are these: read-out: BaF3 FQEA IC50. A digest of the protocol: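 72 h proliferation, Ba/F3 EGFR mutants (no IL3, puromycin-selected pools, EGFR confirmed by Western blot). Seeding of 400 L858R, 600 L858R/C797S and 800 exon 19del/FQEA cells per well. CellTiter-Glo used; controls were […] (high) and medium alone (low).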

Assay [4] has as its target T5, EGFR exon 20 NPG Ins D770_N771 (Ba/F3 cells) (Homo sapiens, UniProt P00533, INS770NPG).
T5 construct: expressed in transfected cells; host or cells: Ba/F3 (murine pro-B cells), retroviral transduction, puromycin selection, IL3-independent pool
As to the kind of experiment: Inhibitor activity on EGFR-dependent cell growth (CellTiter-Glo, 72 h), Ba/F3 EGFR exon 20 NPG Ins. The settings on record: read-out: BaF3 NPG IC50. A digest of the protocol:
as §17

Assay [5] has as its target T5, EGFR exon 20 NPG Ins D770_N771 (Ba/F3 cells). Kind of assay: Inhibitor activity on EGFR phosphorylation (pEGFR AlphaLISA, 2 h), Ba/F3 EGFR exon 20 NPG Ins. The method, boiled down:
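IL3-independent Ba/F3 cells transduced with mutant EGFR (50K/well) or CUTO14 cells (12.5K/well) were treated 2 h with 10-point, 3-fold compound dilutions. Phospho-EGFR in lysates was measured by AlphaLISA to derive IC50.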
Background: Alpha assays give light when donor and acceptor beads are brought close together.

In assay [6] the target is T6, EGFR exon 20 SVD Ins D770_N771 (Ba/F3 cells) (Homo sapiens, UniProt P00533, INS770SVD).
T6 construct: expressed in transfected cells; host or cells: Ba/F3 (murine pro-B cells), retroviral transduction, puromycin selection, IL3-independent pool
T6 sequence (P00533 with tags, fused parts or gaps INS770SVD): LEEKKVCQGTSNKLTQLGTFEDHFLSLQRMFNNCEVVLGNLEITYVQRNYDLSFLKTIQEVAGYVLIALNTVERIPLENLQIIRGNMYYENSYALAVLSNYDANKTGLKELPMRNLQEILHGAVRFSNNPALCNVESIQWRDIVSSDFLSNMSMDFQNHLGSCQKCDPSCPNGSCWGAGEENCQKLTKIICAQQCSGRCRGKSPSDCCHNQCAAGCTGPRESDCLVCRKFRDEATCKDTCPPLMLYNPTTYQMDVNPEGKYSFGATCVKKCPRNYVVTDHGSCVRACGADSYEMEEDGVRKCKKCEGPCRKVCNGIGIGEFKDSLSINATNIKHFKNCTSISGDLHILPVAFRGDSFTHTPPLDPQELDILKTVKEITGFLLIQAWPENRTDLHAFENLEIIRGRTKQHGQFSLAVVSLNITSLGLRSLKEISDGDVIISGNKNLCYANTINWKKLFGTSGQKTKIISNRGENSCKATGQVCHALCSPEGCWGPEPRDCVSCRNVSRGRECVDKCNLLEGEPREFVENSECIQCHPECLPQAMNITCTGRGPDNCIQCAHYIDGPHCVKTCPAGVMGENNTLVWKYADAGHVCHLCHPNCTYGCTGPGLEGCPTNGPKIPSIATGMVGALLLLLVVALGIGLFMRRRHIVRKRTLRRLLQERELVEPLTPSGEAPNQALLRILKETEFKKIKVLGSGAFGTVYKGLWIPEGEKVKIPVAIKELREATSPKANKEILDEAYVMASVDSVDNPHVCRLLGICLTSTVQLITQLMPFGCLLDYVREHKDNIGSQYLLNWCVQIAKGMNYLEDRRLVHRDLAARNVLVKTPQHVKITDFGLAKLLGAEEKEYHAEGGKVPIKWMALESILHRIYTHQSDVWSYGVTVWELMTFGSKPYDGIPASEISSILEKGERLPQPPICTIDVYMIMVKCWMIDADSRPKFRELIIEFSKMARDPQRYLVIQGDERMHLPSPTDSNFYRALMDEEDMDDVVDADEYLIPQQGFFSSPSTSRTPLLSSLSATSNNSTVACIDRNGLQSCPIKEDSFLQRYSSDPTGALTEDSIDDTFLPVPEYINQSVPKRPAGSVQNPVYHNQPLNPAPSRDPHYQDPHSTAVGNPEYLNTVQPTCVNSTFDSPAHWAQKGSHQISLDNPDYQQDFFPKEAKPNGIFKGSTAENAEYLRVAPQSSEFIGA
Kind of assay: Inhibitor activity on EGFR-dependent cell growth (CellTiter-Glo, 72 h), Ba/F3 EGFR exon 20 SVD Ins. The conditions noted are these: read-out: BaF3 SVD IC50. A digest of the protocol:
as §17

Bounds are passed on as bounds.

EGFR exon 19del (Ba/F3 cells), sequence (P00533 with tags, fused parts or gaps DEL746-750): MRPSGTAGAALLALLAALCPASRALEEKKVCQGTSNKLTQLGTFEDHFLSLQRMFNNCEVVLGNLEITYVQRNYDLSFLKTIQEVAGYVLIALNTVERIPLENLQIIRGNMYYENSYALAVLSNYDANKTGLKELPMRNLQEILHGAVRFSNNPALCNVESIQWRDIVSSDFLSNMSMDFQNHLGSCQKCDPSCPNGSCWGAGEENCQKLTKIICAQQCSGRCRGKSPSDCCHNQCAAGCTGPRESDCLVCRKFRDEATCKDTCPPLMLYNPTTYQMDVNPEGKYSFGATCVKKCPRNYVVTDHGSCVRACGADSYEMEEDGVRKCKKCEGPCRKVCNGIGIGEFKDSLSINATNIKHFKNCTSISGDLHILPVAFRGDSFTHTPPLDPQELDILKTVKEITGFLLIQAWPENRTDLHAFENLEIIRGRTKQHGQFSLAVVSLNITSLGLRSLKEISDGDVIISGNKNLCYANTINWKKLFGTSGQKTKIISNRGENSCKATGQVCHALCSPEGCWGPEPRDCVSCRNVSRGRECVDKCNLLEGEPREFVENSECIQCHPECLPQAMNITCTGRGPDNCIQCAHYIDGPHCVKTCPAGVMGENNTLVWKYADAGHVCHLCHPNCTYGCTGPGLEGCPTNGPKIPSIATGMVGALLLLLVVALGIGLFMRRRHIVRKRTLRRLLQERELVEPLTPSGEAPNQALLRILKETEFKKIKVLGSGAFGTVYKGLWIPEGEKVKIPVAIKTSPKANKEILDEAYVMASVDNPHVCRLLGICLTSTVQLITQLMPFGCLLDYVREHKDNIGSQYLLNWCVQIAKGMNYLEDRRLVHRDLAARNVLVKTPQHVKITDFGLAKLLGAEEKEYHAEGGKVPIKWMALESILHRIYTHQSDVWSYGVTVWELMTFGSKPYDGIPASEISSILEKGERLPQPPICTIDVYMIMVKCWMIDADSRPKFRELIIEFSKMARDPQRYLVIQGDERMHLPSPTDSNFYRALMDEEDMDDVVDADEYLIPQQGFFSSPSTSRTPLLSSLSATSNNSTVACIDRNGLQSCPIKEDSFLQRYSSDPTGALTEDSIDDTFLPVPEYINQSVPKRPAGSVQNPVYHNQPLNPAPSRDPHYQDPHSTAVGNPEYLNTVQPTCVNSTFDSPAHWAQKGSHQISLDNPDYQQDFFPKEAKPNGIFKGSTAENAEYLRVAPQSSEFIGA
T1 sequence (P00533 25-1210): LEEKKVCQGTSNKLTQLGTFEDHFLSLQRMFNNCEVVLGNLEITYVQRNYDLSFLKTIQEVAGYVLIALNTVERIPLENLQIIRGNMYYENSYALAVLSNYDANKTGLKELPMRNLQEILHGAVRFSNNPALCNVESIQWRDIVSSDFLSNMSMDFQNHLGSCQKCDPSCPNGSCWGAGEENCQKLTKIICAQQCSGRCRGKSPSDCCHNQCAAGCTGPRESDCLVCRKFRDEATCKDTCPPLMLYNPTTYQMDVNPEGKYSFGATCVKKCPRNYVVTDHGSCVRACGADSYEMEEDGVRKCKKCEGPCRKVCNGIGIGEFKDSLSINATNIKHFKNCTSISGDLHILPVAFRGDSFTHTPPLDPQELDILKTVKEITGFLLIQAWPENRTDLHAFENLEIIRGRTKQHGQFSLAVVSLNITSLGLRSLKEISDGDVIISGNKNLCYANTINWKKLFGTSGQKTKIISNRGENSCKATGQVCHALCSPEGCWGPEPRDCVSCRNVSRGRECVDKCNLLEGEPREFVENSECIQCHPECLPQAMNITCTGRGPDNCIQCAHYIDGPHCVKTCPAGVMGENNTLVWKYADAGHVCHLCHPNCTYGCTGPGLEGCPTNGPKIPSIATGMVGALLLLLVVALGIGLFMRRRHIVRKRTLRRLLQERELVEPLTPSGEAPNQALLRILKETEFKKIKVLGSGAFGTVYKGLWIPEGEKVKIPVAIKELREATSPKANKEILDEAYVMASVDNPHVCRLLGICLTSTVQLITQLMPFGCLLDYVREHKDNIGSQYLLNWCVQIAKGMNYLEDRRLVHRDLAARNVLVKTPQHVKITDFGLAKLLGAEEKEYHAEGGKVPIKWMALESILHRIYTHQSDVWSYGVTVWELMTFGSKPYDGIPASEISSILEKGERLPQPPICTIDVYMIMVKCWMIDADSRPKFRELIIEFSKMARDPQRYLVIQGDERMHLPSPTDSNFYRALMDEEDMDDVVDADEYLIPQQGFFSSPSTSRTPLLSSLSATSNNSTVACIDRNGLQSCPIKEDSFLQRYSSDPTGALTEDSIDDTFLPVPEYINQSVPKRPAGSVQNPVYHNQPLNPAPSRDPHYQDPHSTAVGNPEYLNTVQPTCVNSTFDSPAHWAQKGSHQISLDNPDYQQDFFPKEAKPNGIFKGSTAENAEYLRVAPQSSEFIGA
T3 sequence (P00533 25-1210 L858R): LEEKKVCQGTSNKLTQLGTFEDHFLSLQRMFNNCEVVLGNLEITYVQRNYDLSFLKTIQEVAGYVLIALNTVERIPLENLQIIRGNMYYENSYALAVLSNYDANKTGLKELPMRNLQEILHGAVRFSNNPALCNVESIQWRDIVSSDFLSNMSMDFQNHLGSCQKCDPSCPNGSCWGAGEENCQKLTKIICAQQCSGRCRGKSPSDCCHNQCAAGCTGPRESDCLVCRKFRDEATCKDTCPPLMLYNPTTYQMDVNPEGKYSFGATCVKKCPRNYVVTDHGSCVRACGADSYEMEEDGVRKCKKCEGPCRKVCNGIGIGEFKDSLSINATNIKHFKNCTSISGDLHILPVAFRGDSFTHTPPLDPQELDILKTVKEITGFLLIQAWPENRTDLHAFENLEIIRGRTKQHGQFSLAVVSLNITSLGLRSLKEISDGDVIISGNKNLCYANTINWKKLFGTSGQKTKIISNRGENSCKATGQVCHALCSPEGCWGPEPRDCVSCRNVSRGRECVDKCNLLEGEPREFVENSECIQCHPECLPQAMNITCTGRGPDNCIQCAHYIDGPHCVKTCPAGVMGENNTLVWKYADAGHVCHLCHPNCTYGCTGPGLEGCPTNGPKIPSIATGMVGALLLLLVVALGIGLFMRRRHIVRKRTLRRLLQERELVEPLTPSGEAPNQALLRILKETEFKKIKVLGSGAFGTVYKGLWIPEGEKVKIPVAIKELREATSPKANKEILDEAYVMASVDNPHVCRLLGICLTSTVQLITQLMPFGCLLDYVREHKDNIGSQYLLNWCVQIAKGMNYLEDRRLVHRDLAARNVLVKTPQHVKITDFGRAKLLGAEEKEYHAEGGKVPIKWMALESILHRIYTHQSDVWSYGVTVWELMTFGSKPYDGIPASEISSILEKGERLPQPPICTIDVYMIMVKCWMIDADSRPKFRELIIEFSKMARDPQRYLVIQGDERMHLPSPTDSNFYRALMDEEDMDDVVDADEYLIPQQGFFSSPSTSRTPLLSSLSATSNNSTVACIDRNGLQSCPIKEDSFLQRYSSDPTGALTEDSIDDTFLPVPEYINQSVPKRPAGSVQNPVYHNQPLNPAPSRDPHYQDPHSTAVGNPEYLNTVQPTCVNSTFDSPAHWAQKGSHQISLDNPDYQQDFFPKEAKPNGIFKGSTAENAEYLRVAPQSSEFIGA

As to `COCCC1(C)CNC(=O)c2c1[nH]c(-c1ccncc1F)c2Nc1cccc(Cl)c1OC` (single isomer, unassigned) [Compound 779], the IC50 at EGFR WT (Ba/F3 cells) was […]; in assay [1] it was […]; in assay [2], […]; on EGFR L858R (Ba/F3 cells) it was […]; in assay [3], […]; in assay [4], […].
For the compound `COc1c(Cl)cccc1Nc1c(-c2ccnc(C)n2)[nH]c2c1C(=O)NC[C@H]2CC1COCCO1` (stereo in doubt) [Compound 573, (7R)-3-[(3-chloro-2-methoxyphenyl)amino]-7-[(2R)-1,4-dioxan-2-ylmethyl]-2-(2-methylpyrimidin-4-yl)-1H,5H,6H,7H-pyrrolo[3,2-c]pyridin-4-one], the half-inhibitory concentration (IC50) at EGFR WT (Ba/F3 cells) was 100 to 1000 nM; in assay [1] it was less than 100 nM; on EGFR L858R (Ba/F3 cells), less than 100 nM; in assay [5] it was less than 100 nM; in assay [4] it was less than 100 nM.
In the case of `CC[C@@H]1CNC(=O)c2c1[nH]c(-c1ccnc(N)n1)c2Nc1cccc(Cl)c1OC` [189a], the IC50 was 100 to 1000 nM on EGFR WT (Ba/F3 cells); less than 100 nM in assay [6]; less than 100 nM in assay [1]; less than 100 nM in assay [2]; less than 100 nM on EGFR L858R (Ba/F3 cells); less than 100 nM in assay [3]. Besides, in assay [4], the IC50 is less than 100 nM.
`COc1ccc2nccc(-c3[nH]c4c(c3Nc3cccc(Cl)c3OC)C(=O)NC[C@H]4C)c2n1` [310a]: the IC50 (at EGFR WT (Ba/F3 cells); in assay [6]; in assay [1]; in assay [2]; at EGFR L858R (Ba/F3 cells); in assay [3]) was less than 100 nM in each case. Also, the 50% inhibitory concentration (IC50) in assay [4] was less than 100 nM.
As for `COCC[C@@H]1CNC(=O)c2c1[nH]c(-c1ccnc(C)n1)c2Nc1cccc(F)c1OC` [453a], the IC50 at EGFR WT (Ba/F3 cells) is greater than 1000 nM; in assay [6], 100 to 1000 nM; in assay [1] it was less than 100 nM; in assay [2], 100 to 1000 nM; on EGFR L858R (Ba/F3 cells) it was less than 100 nM; in assay [4], 100 to 1000 nM.
Regarding `COc1c(F)cccc1Nc1c(-c2ccncc2F)[nH]c2c1C(=O)NC[C@H]2C[C@@H]1CCO1` [Compound 422a, (7R)-3-[(3-fluoro-2-methoxyphenyl)amino]-2-(3-fluoropyridin-4-yl)-7-[(2R)-oxetan-2-ylmethyl]-1H,5H,6H,7H-pyrrolo[3,2-c]pyridin-4-one], the 50% inhibitory concentration (IC50) was 100 to 1000 nM at EGFR WT (Ba/F3 cells); less than 100 nM in assay [6]; less than 100 nM in assay [1]; less than 100 nM in assay [2]; less than 100 nM at EGFR L858R (Ba/F3 cells); 100 to 1000 nM in assay [3]. The IC50 in assay [5] and in assay [4] was less than 100 nM throughout.
As for `COc1c(F)cccc1Nc1c(-c2ccnc3ccoc23)[nH]c2c1C(=O)NCC2` [Compound 553, 3-[(3-fluoro-2-methoxyphenyl)amino]-2-{furo[3,2-b]pyridin-7-yl}-1H,5H,6H,7H-pyrrolo[3,2-c]pyridin-4-one], the IC50 on EGFR WT (Ba/F3 cells) is 100 to 1000 nM; in assay [6], less than 100 nM; in assay [1], less than 100 nM; in assay [2], less than 100 nM; on EGFR L858R (Ba/F3 cells), less than 100 nM; in assay [3], less than 100 nM.
As to `COc1c(Cl)cccc1Nc1c(-c2ccnc3ccc(OC4CC(F)(F)C4)nc23)[nH]c2c1C(=O)NCC2` [Compound 766, 3-[(3-chloro-2-methoxyphenyl)amino]-2-[6-(3,3-difluorocyclobutoxy)-1,5-naphthyridin-4-yl]-1H,5H,6H,7H-pyrrolo[3,2-c] pyridin-4-one], the half-maximal inhibitory concentration (IC50) on EGFR WT (Ba/F3 cells) was 100 to 1000 nM; in assay [6], less than 100 nM; in assay [1] it was less than 100 nM; in assay [2], less than 100 nM; on EGFR L858R (Ba/F3 cells) it was less than 100 nM; in assay [3], less than 100 nM. Also, the IC50 in assay [4] is less than 100 nM.
As to `Cc1ccc2nccc(-c3[nH]c4c(c3Nc3cccc(F)c3C)C(=O)NCC4)c2n1` [Compound 810, 3-[(3-fluoro-2-methylphenyl)amino]-2-(6-methyl-1,5-naphthyridin-4-yl)-1H,5H,6H,7H-pyrrolo[3,2-c]pyridin-4-one], the IC50 at EGFR WT (Ba/F3 cells) was 100 to 1000 nM; in assay [6] it was less than 100 nM; in assay [1] it was less than 100 nM; in assay [2], less than 100 nM; on EGFR L858R (Ba/F3 cells) it was less than 100 nM; in assay [3] it was less than 100 nM.
In the case of `COCc1ccc2nccc(-c3[nH]c4c(c3Nc3cccc(Cl)c3OC)C(=O)NCC4)c2n1` [compound 679, 3-[(3-chloro-2-methoxyphenyl)amino]-2-[6-(methoxymethyl)-1,5-naphthyridin-4-yl]-1H,5H,6H,7H-pyrrolo[3,2-c]pyridin-4-one], the IC50 (on EGFR WT (Ba/F3 cells); in assay [6]; in assay [1]; in assay [2]; on EGFR L858R (Ba/F3 cells); in assay [3]) was less than 100 nM each time. In addition, the IC50 in assay [4] was less than 100 nM.
Take `CCO[C@@H](C)c1ccc2nccc(-c3[nH]c4c(c3Nc3cccc(Cl)c3OC)C(=O)NCC4)c2n1` [compound 754, 3-[(3-chloro-2-methoxyphenyl)amino]-2-[6-[(1S)-1-ethoxyethyl]-1,5-naphthyridin-4-yl]-1H,5H,6H,7H-pyrrolo[3,2-c]pyridin-4-one; trifluoroacetic acid]: the IC50 (on EGFR WT (Ba/F3 cells); in assay [6]; in assay [1]; in assay [2]; at EGFR L858R (Ba/F3 cells); in assay [3]) was less than 100 nM each time. Moreover, the IC50 in assay [4] is less than 100 nM.
For `COCC[C@@H]1CNC(=O)c2c1[nH]c(-c1ccncc1F)c2Nc1cccc(F)c1C` [compound 823], the IC50 (at EGFR WT (Ba/F3 cells); in assay [6]; in assay [1]; in assay [2]; at EGFR L858R (Ba/F3 cells); in assay [3]) was less than 100 nM each time.

Usually IC50 stands for the concentration that gives 50% inhibition.
